Tests used:
[1] = disulfide bond blocked by methylation; cited from earlier work
[2] = Recovery of GT and bmGT from human whole blood (influence of blood cells); format: in vitro ADME; settings: whole blood, human blood, blood centrifuged before extraction to eliminate cellular fraction; for recovery at 30 min, 5 µg/mL: 5 μg added to 1 ml; for recovery at 30 min, 20 µg/mL: 20 μg added to 1 ml
Protocol: (§1) […] Later, the blood was centrifuged at 2000 revolutions per minute (rpm) during 15 minutes, the serum was recovered and GT and bmGT were extracted and analysed as described above.
(§2) The samples were separated using a horizontal developing chamber (Camag) by facing the plates downwards. n-heptane (C7), MeOH, tetrahydrofuran (THF) and acetonitrile (ACN) (HPLC grade, Scharlau, Barcelona, Spain) were used as solvents. The separation and quantification of GT and bmGT was performed with a mixture of THF:C7:ACN (40:58:2) (v:v:v) during 3 min.
(§3) Detection and quantification by UV spectroscopy, a TLC3 scanner was used (Camag) in UV mode whereby a UV scanning densitometry was carried out to determine GT and bmGT (wavelength (λ)=280 and 367 nm). A linear scan with a beam of 4 mm×0.2 mm was used in both cases. The area under the peaks was quantified and saved using Camag's software.
(§4) In parallel, the influence of the presence of blood cells on the recovery of GT and bmGT was analysed. Unlike the serum and plasma, less than 10% of GT was recovered from the whole blood, even when large quantities of GT (20 ug) were added (Table 1). […] The precision of this determination was as high as in the serum or plasma with RSD values of between 9-16%. Aliquots of blood and plasma from the same unit of blood were used simultaneously to perform these determinations, therefore, the only, but crucial, difference between both fluids is the presence of red and white cells in the blood.

blood cells = assay: as above; format: in vitro ADME; settings: for lost in the blood cells: added to total blood, plasma levels analysed after 10 minutes
Protocol: as §1, §2, §3, §4

For CS[C@]1(CO)C(=O)N2C3C(=CC=C[C@@H]3O)C[C@@]2(SC)C(=O)N1C (some centres unmarked) [bmGT], the biological activity [1] is given as “biologically inactive”, the recovery at 30 min, 5 µg/mL [2] is given as 73.2% and the recovery at 30 min, 20 µg/mL [2] is given as 87.2%. The “lost in the blood cells” value (blood cells) was 10-15%.
With CN1C(=O)[C@]23CC4=CC=C[C@H](O)[C@H]4N2C(=O)[C@@]1(CO)SS3 [GT, Gliotoxin] the recovery at 30 min, 5 µg/mL [2] was 8.44%, the recovery at 30 min, 20 µg/mL [2] was 6.56% and the “lost in the blood cells” value (blood cells) was 90%. For the same compound, the “recovered from the whole blood” value (blood cells; whole blood, even when large quantities (20 ug) were added) was “less than 10%”.

Source: patent US20140155341A1, “USE OF SS'-DIMETHYL-GLIOTOXIN AS […] OF P[…] BY GLIOTOXIN-PRODUCING FUNGI OR THEIR DERIVATIVES” (priority 2011, published 2014)
